According to US20190135818A1 (SHANGHAI INSTITUTE OF MATERIA MEDICA, CHINESE ACADEMY OF …, priority 2016, published 2019):
pIC50: −log10 of the molar value.

How the values were obtained:
[1] = test system: human lung cancer NCI-H1581 transplanted tumor; assay: Tumor growth inhibition in tumor-bearing mice (subcutaneously transplanted tumor); format: in vivo, BALB/cA nude mice; conditions: for T/C (%): 13th day; for TV (mm^3, mean ± SD) d0: d0, before dosing
Procedure: Before using, the compound was diluted with 5% Tween80 in normal saline to the desired concentration (light yellow suspension), and was prepared once a week.
Before using, the compound was diluted with 1% Tween 80 in normal saline to the desired concentration (white suspension), and was prepared once a week.
The cell strain was inoculated in the right axilla of the nude mice, and the amount of cells inoculated was 5×10^6/animal to form transplanted tumor, and passaged in vivo in nude mice by 1 generation before use.
The tumor tissue in the vigorous growth period was cut into 1.5 mm^3, and inoculated subcutaneously in the right axilla of the nude mice under aseptic conditions. The diameter of the subcutaneously transplanted in a nude mice was measured with a vernier caliper, and the animals were randomly grouped when the average volume of tumors was about 220 mm^3. […] The solvent control group was given an equal amount of normal saline. The diameter of the transplanted tumor was measured twice a week during the entire experiment, and the body weights of the mice were weighed. The calculation formula of tumor volume (TV) is: TV=1/2×a×b2, where a and b respectively represent the length and width of the tumor. The relative tumor volume (RTV) was calculated based on the measured results and the formula was: RTV=Vt/V0. Where V0 is the tumor volume measured before grouping and dosing (d0), and Vt is the tumor volume at each measurement.

[2] = test system: Human acute myeloid leukemia cell line KG1; assay: FGFR-dependent tumor cell proliferation inhibition activity test (CCK-8, 72 h); format: cell-based; conditions: Homo sapiens, KG-1, KG1 cells
From the text: Human acute myeloid leukemia cell line KG1 (FGFR1 fusion protein expressed in the cytoplasm, FGFR1-dependent tumor cell line) (ATCC, Cat. No. CCL-246), cell culture medium RPMI-1640 (Corning Cellgro, No. 10-040-CVR), fetal bovine serum (Life
Technologies, Cat. No. 10099-141) was purchased from the company; CCK-8 cell counting kit (DOJINDO, Cat. No. FK808). Adjustable wavelength microplate reader (Molecular Device, Cat. No. SpectraMax 190).
The inhibitory effect of the compound on KG1 proliferation was detected by CCK-8 Cell Counting Kit (Dojindo): Logarithmic growth phase cells were seeded in 96-well culture plate in appropriate density, 90 ul for each well. After cultured overnight, different concentrations of drugs were added and incubated for 72 h, while solvent control well was set (negative control). After the cells were treated by the compound for 72 h, 10 μL of CCK-8 reagent was added to each well. After incubated for 2-4 hours in a 37 □ incubator, the plate was read with SpectraMax 190 microplate reader at wavelength 450 nm.
The inhibition rate of compounds against cell proliferation is calculated by the following formula:
Inhibition rate (%)=(OD negative control well-OD administration well)/OD negative control well×100%.
(§1) The IC50 values were obtained by four-parameter regression analysis using the software supplied with the microplate reader.

FGFR1 = target: T1, FGFR1 (Homo sapiens, UniProt P11362); assay: FGFR kinase inhibitory activity experiment (ELISA, Poly(Glu,Tyr)4:1 substrate); format: biochemical; conditions: kinase recombinant protein FGFR1, ATP 5 μM
T1 construct: The reaction was initiated by addition of FGFR kinase domain recombinant protein diluted with 49 μL of reaction buffer; purchased Millipore 14-482
T1 sequence (P11362 478-767 limits assumed): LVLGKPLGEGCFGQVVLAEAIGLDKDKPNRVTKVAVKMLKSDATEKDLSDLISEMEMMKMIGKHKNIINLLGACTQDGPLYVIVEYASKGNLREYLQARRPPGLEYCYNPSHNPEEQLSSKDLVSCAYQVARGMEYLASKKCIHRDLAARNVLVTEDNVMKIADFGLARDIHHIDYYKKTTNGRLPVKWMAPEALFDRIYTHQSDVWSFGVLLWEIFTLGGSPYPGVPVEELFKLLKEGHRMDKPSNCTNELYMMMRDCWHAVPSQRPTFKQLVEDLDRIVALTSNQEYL
Procedure: Precision electronic balance (Sartotius, Cat. No. BP210D), adjustable wavelength microplate reader (Molecular Device, Cat. No. SpectraMax 190).
After the liquid was removed from the wells, the plate was washed for three times with 200 μL/well of T-PBS (PBS containing 0.1% Tween-20) for 5 minutes each time. The enzyme plate was dried at 37° C. in a dryer for 1-2 hours.
50 μL ATP solution diluted with reaction buffer (50 mM HEPES pH 7.4, 50 mM MgCl2, 0.5 mM MnCl2, 0.2 mM Na3VO4, 1 mM DTT) was added into each well at a 5 μM final concentration. The compounds were diluted to appropriate concentration in DMSO, 1 μL/well or containing the corresponding concentrations of DMSO (negative control wells). The reaction was initiated by addition of FGFR kinase domain recombinant protein diluted with 49 μL of reaction buffer. Two control wells without enzyme were set in each experiment. The plate was placed on a shaker (100 rpm) at 37° C. for 1 hour. The plate was washed with T-PBS for three times. 100 μL/well of primary antibody PY99 dilution was added, and incubated at 37° C. for 0.5 hour on a shaker (100 rpm). The plate was washed with T-PBS for three times. 100 μL/well of horseradish peroxidase-labeled secondary anti-goat anti-mouse IgG dilution was added and incubated at 37° C. for 0.5 hour on a shaker (100 rpm). The plate was washed with T-PBS for three times. 100 μL/well of 2 mg/mL OPD coloration solution (diluted with 0.1 M citric acid-sodium citrate buffer containing 0.03% H2O2 (pH=5.4)) was added, and incubated in darkness for 1-10 minutes at 25° C. The reaction was quenched with 50 μL/well 2M H2SO4, and read at 490 nm using a tunable microplate microplate reader SPECTRA MAX 190.
The inhibition ratio of the sample was determined by the following formula: […]
as §1

[3] = AZD4547 12.5 mg/kg po qd/13, d13

Row | Compound | growth of subcutaneously transplanted tumors (in words) ([1]; 50 mg/kg and 10 mg/kg intraperitoneally once a day for 13 days) | T/C (%) ([1]; A26 10 mg/kg ip qd/13) | body weight (g) d0 ([1]; A26 10 mg/kg ip qd/13) [g] | TV (mm^3, mean ± SD) d0 ([1]; A26 10 mg/kg ip qd/13) [mm^3] | RTV (mean ± SD) ([1]; A26 10 mg/kg ip qd/13, d13) | TV (mm^3, mean ± SD) d13 ([1]; A26 10 mg/kg ip qd/13, d13) [mm^3] | body weight (g) d13 ([1]; A26 10 mg/kg ip qd/13, d13) [g] | T/C (%) ([1]; A26 50 mg/kg ip qd/13) | body weight (g) d0 ([1]; A26 50 mg/kg ip qd/13) [g] | TV (mm^3, mean ± SD) d0 ([1]; A26 50 mg/kg ip qd/13) [mm^3] | RTV (mean ± SD) ([1]; A26 50 mg/kg ip qd/13, d13) | TV (mm^3, mean ± SD) d13 ([1]; A26 50 mg/kg ip qd/13, d13) [mm^3] | pIC50 [2] | growth of subcutaneously transplanted tumors (in words) ([1]; 12.5 mg/kg orally once a day for 13 days) | T/C (%) ([1]; AZD4547 12.5 mg/kg po qd/13) | TV (mm^3, mean ± SD) d0 ([1]; AZD4547 12.5 mg/kg po qd/13) [mm^3] | RTV (mean ± SD) [1, 3] | TV (mm^3, mean ± SD) d13 [1, 3] [mm^3] | pIC50 (FGFR1)
1 | Cc1c(-c2c3c(N)n[nH]c(=O)c3nn2-c2ccc(NC(=O)/C=C/CN(C)C)cc2)oc2ccc(Cl)cc12 [Compound A26, (2E)-N-{4-[4-amino-3-(5-chloro-3-methyl-1-benzofuran-2-yl)-7-carbonyl-6,7-dihydro-2H-pyrazolo[3,4-d]pyridazin-2-yl]phenyl}-4-(dimethylamino)but-2-enamide] | significantly inhibited | 19.88 | 18.4 | 161 ± 71 | 4.17 ± 2.49 | 621 ± 289 | 21.3 | 2.20 | 18.2 | 159 ± 69 | 0.46 ± 0.19 | 66 ± 21 | ≥ 7.00 |  |  |  |  |  | 
2 | AZD4547 [reference compound] |  |  |  |  |  |  |  |  |  |  |  |  |  | partially inhibited | 16.39 | 153 ± 50 | 3.43 ± 2.61 | 517 ± 392 | 
3 | Cc1ccc2oc(-c3c4c(N)n[nH]c(=O)c4nn3C3CCC(NC(=O)CN(C)C)CC3)c(C)c2c1 (centres unmarked) [Compound A35, N-{4-[4-amino-3-(3,5-dimethyl-1-benzo-furan-2-yl)-7-carbonyl-6,7-dihydro-2H-pyrazolo[3,4-d]pyridazin-2-yl]cyclohexyl}-N,N-dimethylglycinamide] |  |  |  |  |  |  |  |  |  |  |  |  | 6.00 to 7.00 |  |  |  |  |  | > 7.00
